O=P(O)(O)c1ccccc1
Settings | solubility (mole fraction)
in 1,4-dioxane, 288.15 K | 0.186
in 1,4-dioxane, 293.15 K | 0.208
in 1,4-dioxane, 298.15 K | 0.224
in 1,4-dioxane, 303.15 K | 0.243
in 1,4-dioxane, 308.15 K | 0.264
in 1,4-dioxane, 313.15 K | 0.286
in 1,4-dioxane, 318.15 K | 0.307
in 1,4-dioxane, 323.15 K | 0.336
in 1,4-dioxane, 328.15 K | 0.36
in 1,4-dioxane, 333.15 K | 0.388
in 2-butoxyethanol, 278.15 K | 0.199
in 2-butoxyethanol, 283.15 K | 0.208
in 2-butoxyethanol, 288.15 K | 0.218
in 2-butoxyethanol, 293.15 K | 0.231
in 2-butoxyethanol, 298.15 K | 0.243
in 2-butoxyethanol, 303.15 K | 0.258
in 2-butoxyethanol, 308.15 K | 0.27
in 2-butoxyethanol, 313.15 K | 0.283
in 2-butoxyethanol, 318.15 K | 0.298
in 2-butoxyethanol, 323.15 K | 0.317
in 2-butoxyethanol, 328.15 K | 0.334
in 2-butoxyethanol, 333.15 K | 0.355
in 2-ethoxyethanol, 278.15 K | 0.305
in 2-ethoxyethanol, 283.15 K | 0.317
in 2-ethoxyethanol, 288.15 K | 0.327
in 2-ethoxyethanol, 293.15 K | 0.339
in 2-ethoxyethanol, 298.15 K | 0.35
in 2-ethoxyethanol, 303.15 K | 0.363
in 2-ethoxyethanol, 308.15 K | 0.378
in 2-ethoxyethanol, 313.15 K | 0.391
in 2-ethoxyethanol, 318.15 K | 0.404
in 2-ethoxyethanol, 323.15 K | 0.42
in 2-ethoxyethanol, 328.15 K | 0.439
in 2-ethoxyethanol, 333.15 K | 0.454
in 2-methoxyethanol, 278.15 K | 0.342
in 2-methoxyethanol, 283.15 K | 0.348
in 2-methoxyethanol, 288.15 K | 0.359
in 2-methoxyethanol, 293.15 K | 0.371
in 2-methoxyethanol, 298.15 K | 0.383
in 2-methoxyethanol, 303.15 K | 0.397
in 2-methoxyethanol, 308.15 K | 0.408
in 2-methoxyethanol, 313.15 K | 0.425
in 2-methoxyethanol, 318.15 K | 0.439
in 2-methoxyethanol, 323.15 K | 0.453
in 2-methoxyethanol, 328.15 K | 0.468
in 2-methoxyethanol, 333.15 K | 0.483
in 2-propoxyethanol, 278.15 K | 0.244
in 2-propoxyethanol, 283.15 K | 0.257
in 2-propoxyethanol, 288.15 K | 0.266
in 2-propoxyethanol, 293.15 K | 0.28
in 2-propoxyethanol, 298.15 K | 0.295
in 2-propoxyethanol, 303.15 K | 0.307
in 2-propoxyethanol, 308.15 K | 0.318
in 2-propoxyethanol, 313.15 K | 0.336
in 2-propoxyethanol, 318.15 K | 0.349
in 2-propoxyethanol, 323.15 K | 0.368
in 2-propoxyethanol, 328.15 K | 0.382
in 2-propoxyethanol, 333.15 K | 0.401
in acetone, 273.15 K | 0.0872
in acetone, 278.15 K | 0.101
in acetone, 283.15 K | 0.113
in acetone, 288.15 K | 0.13
in acetone, 293.15 K | 0.144
in acetone, 298.15 K | 0.162
in acetone, 303.15 K | 0.178
in acetone, 308.15 K | 0.201
in acetone, 313.15 K | 0.223
in acetone, 318.15 K | 0.249
in ethanol, 278.15 K | 0.288
in ethanol, 283.15 K | 0.295
in ethanol, 288.15 K | 0.305
in ethanol, 293.15 K | 0.314
in ethanol, 298.15 K | 0.326
in ethanol, 303.15 K | 0.334
in ethanol, 308.15 K | 0.347
in ethanol, 313.15 K | 0.357
in ethanol, 318.15 K | 0.371
in ethanol, 323.15 K | 0.383
in ethanol, 328.15 K | 0.394
in ethanol, 333.15 K | 0.407
in isopropanol, 278.15 K | 0.24
in isopropanol, 283.15 K | 0.251
in isopropanol, 288.15 K | 0.265
in isopropanol, 293.15 K | 0.277
in isopropanol, 298.15 K | 0.291
in isopropanol, 303.15 K | 0.307
in isopropanol, 308.15 K | 0.317
in isopropanol, 313.15 K | 0.331
in isopropanol, 318.15 K | 0.346
in isopropanol, 323.15 K | 0.361
in isopropanol, 328.15 K | 0.376
in isopropanol, 333.15 K | 0.394
in methanol, 273.15 K | 0.29
in methanol, 278.15 K | 0.299
in methanol, 283.15 K | 0.307
in methanol, 288.15 K | 0.315
in methanol, 293.15 K | 0.324
in methanol, 298.15 K | 0.335
in methanol, 303.15 K | 0.347
in methanol, 308.15 K | 0.357
in methanol, 313.15 K | 0.369
in methanol, 318.15 K | 0.38
in n-butanol, 278.15 K | 0.193
in n-butanol, 283.15 K | 0.204
in n-butanol, 288.15 K | 0.22
in n-butanol, 293.15 K | 0.232
in n-butanol, 298.15 K | 0.248
in n-butanol, 303.15 K | 0.26
in n-butanol, 308.15 K | 0.273
in n-butanol, 313.15 K | 0.29
in n-butanol, 318.15 K | 0.304
in n-butanol, 323.15 K | 0.321
in n-butanol, 328.15 K | 0.337
in n-butanol, 333.15 K | 0.354
in n-heptanol, 278.15 K | 0.122
in n-heptanol, 283.15 K | 0.133
in n-heptanol, 288.15 K | 0.143
in n-heptanol, 293.15 K | 0.158
in n-heptanol, 298.15 K | 0.17
in n-heptanol, 303.15 K | 0.183
in n-heptanol, 308.15 K | 0.196
in n-heptanol, 313.15 K | 0.212
in n-heptanol, 318.15 K | 0.227
in n-heptanol, 323.15 K | 0.243
in n-heptanol, 328.15 K | 0.26
in n-heptanol, 333.15 K | 0.278
in n-hexanol, 278.15 K | 0.134
in n-hexanol, 283.15 K | 0.146
in n-hexanol, 288.15 K | 0.159
in n-hexanol, 293.15 K | 0.174
in n-hexanol, 298.15 K | 0.188
in n-hexanol, 303.15 K | 0.202
in n-hexanol, 308.15 K | 0.218
in n-hexanol, 313.15 K | 0.23
in n-hexanol, 318.15 K | 0.245
in n-hexanol, 323.15 K | 0.26
in n-hexanol, 328.15 K | 0.278
in n-hexanol, 333.15 K | 0.297
in n-octanol, 278.15 K | 0.0997
in n-octanol, 283.15 K | 0.11
in n-octanol, 288.15 K | 0.123
in n-octanol, 293.15 K | 0.134
in n-octanol, 298.15 K | 0.147
in n-octanol, 303.15 K | 0.161
in n-octanol, 308.15 K | 0.177
in n-octanol, 313.15 K | 0.189
in n-octanol, 318.15 K | 0.202
in n-octanol, 323.15 K | 0.218
in n-octanol, 328.15 K | 0.234
in n-octanol, 333.15 K | 0.252
in n-pentanol, 278.15 K | 0.161
in n-pentanol, 283.15 K | 0.175
in n-pentanol, 288.15 K | 0.186
in n-pentanol, 293.15 K | 0.199
in n-pentanol, 298.15 K | 0.212
in n-pentanol, 303.15 K | 0.226
in n-pentanol, 308.15 K | 0.242
in n-pentanol, 313.15 K | 0.258
in n-pentanol, 318.15 K | 0.273
in n-pentanol, 323.15 K | 0.287
in n-pentanol, 328.15 K | 0.308
in n-pentanol, 333.15 K | 0.323
in n-propanol, 278.15 K | 0.236
in n-propanol, 283.15 K | 0.248
in n-propanol, 288.15 K | 0.262
in n-propanol, 293.15 K | 0.271
in n-propanol, 298.15 K | 0.286
in n-propanol, 303.15 K | 0.296
in n-propanol, 308.15 K | 0.311
in n-propanol, 313.15 K | 0.321
in n-propanol, 318.15 K | 0.332
in n-propanol, 323.15 K | 0.347
in n-propanol, 328.15 K | 0.361
in n-propanol, 333.15 K | 0.375
